Measurements from patent publication US20030207856A1, “Medical devices and compositions for delivering anti-proliferatives to anatomical sites at risk for restenosis” (priority 2002, published 2003).

Tested on: Human coronary smooth muscles cells (HCASMC)
Experiment: Human coronary artery smooth muscle cell proliferation inhibition
Format: cell-based
Conditions: day four, both cell culture schemes, FIGS. 6 and 7
Procedure: Inhibition of Human Coronary Artery Smooth Muscle Cells by Geldanamycin
1. Human coronary smooth muscles cells (HCASMC) were obtained from Clonetics, a division of Cambrex, Inc.
2. HCASMA basal media, supplied by Clonetics and supplemented with fetal bovine serum, insulin, hFGF-B (human fibroblast growth factor) hEGF (human epidermal growth factor).
Human coronary smooth muscles cells (HCASMC) were seeded in 24 well polystyrene tissue culture plates at a density of 5×10^3 cells per well. Two different feeding and reading strategies were employed. Strategy 1: Cells were plated in cell culture media containing various concentrations of geldanamycin (see Table 1) and incubated at 37° C. for 48 hours. After the initial 48 hour incubation, the geldanamycin containing plating media was changed and the cells were fed with drug free media and incubated for an additional 48 hours and then read.
Strategy 2: Cells were plated in cell culture media containing various concentrations of geldanamycin (see Table 1) and incubated at 37° C. for 48 hours. After the initial 48 hours incubation, the geldanamycin-containing plating media was changed and the cells were fed with geldanamycin-containing media and incubated for an additional 48 hours and then read. […]
On day four cultures were analyzed to determine the proliferation inhibition effects of geldanamycin. […]

## COC1=C2C[C@@H](C)C[C@H](OC)[C@H](O)[C@@H](C)/C=C(\C)[C@H](OC(N)=O)[C@@H](OC)/C=C\C=C(/C)C(=O)NC(=CC1=O)C2=O [geldanamycin]
Geldanamycin 0.9 nM
  HCASMC inhibition (percent inhibition of proliferation): > 50%
Geldanamycin 50 nM
  HCASMC inhibition (percent inhibition of proliferation): ~100%
